Consider 1 compound from patent US8026271B2, “Formulations of indol-3-yl-2-oxoacetamide compounds” (National Health Research Institutes, priority 2008, dated 2011).

In general, bioavailability refers to dose-corrected exposure relative to a reference, in per cent. The solubility is how much of the substance goes into solution per volume.

Values after ≈ are worked out from the molar mass of the structure shown. Read-outs that look alike come from different tables or passages of the source. Bounds are passed on as bounds.

Data set [1] is described as follows: Oral bioavailability of BPR0C261 (po vs IV PK profiles, plasma by HPLC-Tandem Mass spectrometry). The class given is in vivo. As to conditions: mouse, 2 mg/kg, po by gavage, read-out: Oral bioavailability (F %). Here is the method: The oral bioavailability of BPR0C261 was assessed by comparing the pharmacokinetic (“PK”) profiles obtained from orally administered (“po”) BPR0C261 in various oral formulation described herein with the PK profile obtained from intravenously administered (“IV”) BPR0C261.
An intravenous formulation of BPR0C261 (carriers: 5% DMSO, 25% Cremophor EL, and 70% water, v/v/v) was administered intravenously by a bolus injection to a group of three mice each via the tail vein, in a single dose of 2 mg/Kg body weight. A blood sample (0.15 mL) was drawn at different points (pre-dose, 2 min, 5 min, 15 min, 30 min. 1 hr, 2 hr, 4 hr, 6 hr, 8 hr, and 24 hr after dosing) from each animal via the cardiac puncture and stored in ice (0-5° C.). […]
Plasma was separated from the blood sample by centrifugation at 15,000 g for 15 min at 4° C. […] All plasma samples were analyzed for the BPR0C261 concentrations by HPLC-Tandem Mass spectrometry.
BPR0C261 plasma concentration data were used to obtain the PK profile for the IV or po administration, i.e., a plasma-concentration vs. time curve. The area under the curve (“AUC”) was then calculated. Oral bioavailability (F %) was determined by comparing the dose-normalized area under the curve for the oral formulation (“AUCpo/dosepo”) with that for the intravenous formulation (“AUCIV/doseIV”), i.e., F %=[AUCpo/dosepo]/[AUCIV/doseIV].

Data set [2] in a line: Solubility of BPR0C261 in different carriers or mixed carriers. The class given is physicochemical. As to conditions: room temperature. Here is the method:
The solubility of BPR0C261 in different drug carriers or mixed carriers was evaluated. The solubility is defined as the maximum amount of a compound dissolved in a carrier or mixed carrier at room temperature.

Turning to `Cc1cc(Cn2cc(C(=O)C(=O)Nc3cc(C)ns3)c3ccccc32)on1` [BPR0C261, N-(3-methylisothiazol-5-yl)-2-[1-(3-methylisoxazol-5-ylmethyl)-1H-indol-3-yl]-2-oxoacetamide], the bioavailability was 18% in data set [1] (formulation containing 5% DMSO, 25% Cremophor EL, and 70% water (v/v/v), vs IV 2 mg/Kg); 25 to 80% in data set [1] (formulations containing TPGS, Transcutol, and optionally PEG 400, vs IV 2 mg/Kg). The solubility in data set [2] (aqueous with cosolvent or surfactant or cyclodextrin, carrier 3: DMSO (20%), Tween 80 (10%), and DDW (70%)) was less than 5000 µg/mL; in data set [2] (aqueous with cosolvent or surfactant or cyclodextrin, carrier 13: DMSO (5%), Cremophor EL (25%), and DDW (70%)), less than 5000 µg/mL; in data set [2] (aqueous with cosolvent or surfactant or cyclodextrin, carrier 14: Methylcellulose (1%), Tween 80 (2%), PEG 400 (10%), and DDW (87%)), less than 1000 µg/mL; in data set [2] (carrier 1: Double distilled water (DDW)), roughly 0.12 µg/mL (≈ 0.000315 mM); in data set [2] (organic solvent or mixture, carrier 2: DMSO), roughly 5000 µg/mL (≈ 13.1 mM); in data set [2] (organic solvent or mixture, carrier 4: Ethanol (3%), Glycerol (2%), PEG 400 (70%), PG (20%), and Transcutol (5%)), 10000 to 30000 µg/mL (≈ 26.3 to 78.9 mM). Also, the solubility is 10000 to 30000 µg/mL (≈ 26.3 to 78.9 mM) in data set [2] (organic solvent or mixture, carrier 5: Glycerol (5%) and PEG 400 (95%)); 10000 to 30000 µg/mL (≈ 26.3 to 78.9 mM) in data set [2] (organic solvent or mixture, carrier 6: TPGS (20%) and PEG 400 (80%)); 10000 to 30000 µg/mL (≈ 26.3 to 78.9 mM) in data set [2] (organic solvent or mixture, carrier 7: Transcutol (10%) and PEG 400 (90%)); 10000 to 30000 µg/mL (≈ 26.3 to 78.9 mM) in data set [2] (organic solvent or mixture, carrier 8: DMSO (10%), PEG 400 (80%), and propylene glycol (10%)); 10000 to 30000 µg/mL (≈ 26.3 to 78.9 mM) in data set [2] (organic solvent or mixture, carrier 9: Transcutol (10%), Cremophor EL (20%), and PEG 400 (70%)); roughly 50000 µg/mL (≈ 131 mM) in data set [2] (organic solvent or mixture, carrier 10: TPGS (20%), Transcutol (20%), and PEG 400 (60%)). The solubility in data set [2] (organic solvent or mixture, carrier 11: TPGS (40%), Transcutol (20%), and PEG 400 (40%)) was roughly 50000 µg/mL (≈ 131 mM); in data set [2] (organic solvent or mixture, carrier 12: TPGS (75%) and Transcutol (25%)), roughly 50000 µg/mL (≈ 131 mM).
